Reference: PMC6968775, “Assessment of contribution of BCRP to intestinal absorption of various drugs using portal‐systemic blood concentration difference model in mice” (Pharmacology Research & Perspectives, 2020)
Where “and” joins values, the source holds several entries; their conditions need not be identical. Identical values can stand only once.

How the values were obtained:
[1] = Blood/plasma concentration ratio (R b) in fresh whole blood; type: in vitro ADME, FVB mice; details: fresh whole blood, FVB mouse whole blood, 37°C
Description: Similarly, the model compounds were added to plasma, and reference blood samples were obtained according to the same procedure. These concentrations of drugs in each sample were analyzed using HPLC (C B and C P, respectively). R b value was calculated by dividing C B by C P.

P‐gp [2] = details: Caco‐2 permeability study; unpublished data; ref Fujita et al, manuscript in preparation; cited from earlier work
P‐gp [3] = details: in vivo (mice); calculated from F a F g in WT, Bcrp(−/−) and Mdr1a/1b(−/−) mice (Eq. 12)
[4] = Pharmacokinetics after iv and oral administration, P‐S difference method, Mdr1a/1b(−/−) mice; type: in vivo
Description: (§1) Male Mdr1a/1b(−/−) and Bcrp(−/−) mice, and WT mice of the same genetic background (FVB) were obtained from Taconic Farms (Germantown, NY, USA). […] Food and water were available ad libitum. All experiments were carried out in accordance with the principles and procedures outlined in the National Institutes of Health Guide for the Care and Use of Laboratory.
(§2) All the mice were fasted overnight with free access to tap water. In the intravenous administration studies, model compounds were administered via the tail vein at doses of 1 mg/kg (n = 3). Following administration, blood samples were collected from the abdominal vein of the anesthetized mice at 0.083, 0.17, 0.5, 1, 2, 4, and 8 hours. […] Following administration, blood samples were taken from the portal and abdominal veins of the anesthetized mice at 0.083, 0.17, 0.5, 1, 2, 4, and 8 hours. The plasma samples were separated by centrifugation at 14 000g for 10 minutes at 4°C and stored at −30°C until analysis.
(§3) After organic layer was evaporated at 60°C, the resultant residues were dissolved in a mobile phase. For the determination of topotecan and sulfasalazine, plasma samples were mixed with acetonitrile, centrifuged at 750 g for 10 minutes at 4°C, and the supernatants were collected. After the evaporation of the supernatants, the residues were dissolved in a mobile phase, and acidified with phosphoric acid for topotecan. All drugs were analyzed by HPLC system (Shimadzu LC‐10AS pump, Shimadzu SIL‐10A autosampler) equipped with a reverse‐phase column (COSMOSIL 5C18‐AR‐II, 3.5‐μm […], 4.6 × 150 mm).
(§4) Elimination rate constant (k e) was determined by the least squares regression analysis of plasma concentration vs time curve. Elimination half‐life (t 1/2) was calculated using Eq.1:(1) t1/2=ln2/ke
(§5) Area under plasma concentration‐time curve (AUC) and area under the first moment curve (AUMC) from time 0 to infinity were calculated by trapezoidal rule.
(§6) Absorption rate constant (k a) after oral administration was calculated by the nonlinear least squares fitting with program MULTI.12
(§7) BA was calculated by Eq.5:(7) BA=AUCoral/AUCiv×Doseiv/Doseoral×100 where AUCoral is AUC after oral administration. Doseiv and Doseoral are administered dose in the intravenous and oral administration study, respectively.
(§8) Hepatic availability (F h) was calculated by Eq.6:(8) Fh=F/Fa×Fg

BCRP [5] = system: BCRP
BCRP [6] = details: Caco‐2 permeability study; ref (10); Kawahara et al, manuscript in revision; cited from earlier work
[7] = Pharmacokinetics after iv and oral administration, P‐S difference method, wild‐type mice; type: in vivo
Description: as §1, §2, §3, §4, §5, §6, §7, §8

[8] = Pharmacokinetics after iv and oral administration, P‐S difference method, Bcrp(−/−) mice; type: in vivo
Description: as §1, §2, §3, §4, §5, §6, §7, §8

[9] = Mdr1a/1b(−/−) mice, p.o. (ciprofloxacin 1, nitrofurantoin 2, topotecan 1, sulfasalazine 5 mg/kg)
[10] = male, Mdr1a/1b(−/−) (FVB background), mouse, systemic plasma (abdominal vein), po
[11] = wild‐type mice, p.o. (ciprofloxacin 1, nitrofurantoin 2, topotecan 1, sulfasalazine 5 mg/kg)
[12] = Bcrp(−/−) mice, p.o. (ciprofloxacin 1, nitrofurantoin 2, topotecan 1, sulfasalazine 5 mg/kg)

O=C1CN(/N=C/c2ccc([N+](=O)[O-])o2)C(=O)N1 [nitrofurantoin, Nitrofurantoin]
blood plasma ratio at 15 min, 1 µg/mL [1]: 1.18 ± 0.1
AQp‐gp in vitro (Caco‐2) (P‐gp [2]): 0.09
R P‐gp (rate of P‐gp contribution) (P‐gp [3]): 0.13
F h [4, 9]: 79.9%
k a [4, 9]: 7.2 h⁻¹ and 7.20 h⁻¹
BA ([4]; Mdr1a/1b(−/−) mice, p.o. (ciprofloxacin 1, nitrofurantoin 2, topotecan 1, sulfasalazine 5 mg/kg) vs iv 1 mg/kg): 60.0%
F a F g ([4]; Mdr1a/1b(−/−) mice, p.o. (ciprofloxacin 1, nitrofurantoin 2, topotecan 1, sulfasalazine 5 mg/kg), P‐S difference method): 75.2%
AUC 0→∞ (AUCpv) ([4]; Mdr1a/1b(−/−) mice, p.o. (ciprofloxacin 1, nitrofurantoin 2, topotecan 1, sulfasalazine 5 mg/kg), portal vein (pv) plasma): 3.18 µM·h
AUC 0→∞ (AUCsys) ([4]; Mdr1a/1b(−/−) mice, p.o. (ciprofloxacin 1, nitrofurantoin 2, topotecan 1, sulfasalazine 5 mg/kg), systemic (sys) plasma): 2.35 µM·h
k a, P‐gp ([4]; Table 5 summary, Mdr1a/1b(−/−) mice, oral administration): 7.20
(F a F g)P‐gp ([4]; as fraction, Mdr1a/1b(−/−) mice, oral administration): 0.75
clearance ([4]; male, FVB Mdr1a/1b(−/−), mouse, plasma (systemic, abdominal vein), Mdr1a/1b(−/−) mice, iv 1 mg/kg, read-out: CL tot (converted)): 35.8 mL/min/kg
Vd ([4]; male, FVB Mdr1a/1b(−/−), mouse, plasma (systemic, abdominal vein), Mdr1a/1b(−/−) mice, iv 1 mg/kg, read-out: Vdss): 1.36 L/kg
AUC(0-inf) ([4]; male, FVB Mdr1a/1b(−/−), mouse, portal vein plasma, po, Mdr1a/1b(−/−) mice, p.o. (ciprofloxacin 1, nitrofurantoin 2, topotecan 1, sulfasalazine 5 mg/kg), portal vein (pv) plasma, read-out: AUC 0→∞ (AUCpv)): 3.18 µM·h
AUC(0-inf) ([4]; male, FVB Mdr1a/1b(−/−), mouse, systemic plasma (abdominal vein), po, Mdr1a/1b(−/−) mice, p.o. (ciprofloxacin 1, nitrofurantoin 2, topotecan 1, sulfasalazine 5 mg/kg), systemic (sys) plasma, read-out: AUC 0→∞ (AUCsys)): 2.35 µM·h
AUC(0-inf) ([4]; male, Mdr1a/1b(−/−) (FVB background), mouse, plasma, iv, 1 mg/kg, Mdr1a/1b(−/−) mice, iv 1 mg/kg, read-out: AUC 0→∞): 1.95 µM·h
half-life ([4]; male, Mdr1a/1b(−/−) (FVB background), mouse, plasma, Mdr1a/1b(−/−) mice, iv 1 mg/kg): 70.2 min
Tmax ([4]; male, Mdr1a/1b(−/−) (FVB background), mouse, portal vein plasma, po): 10.2 min
Tmax [4, 10]: 10.2 min
half-life [4, 10]: 73.2 min
AUC pv and AUC sys after oral administration, Mdr1a/1b(−/−) mice vs WT mice ([4]; oral administration): approximately 1.5 fold
AQ bcrp (in vivo) (BCRP [5]; calculated from k a in WT, Bcrp(−/−) and Mdr1a/1b(−/−) mice (Eq. 9)): 0.13
R bcrp (rate of BCRP contribution) (BCRP [5]; in vivo (mice), calculated from F a F g in WT, Bcrp(−/−) and Mdr1a/1b(−/−) mice (Eq. 11)): 0.15
AQbcrp in vitro (Caco‐2) (BCRP [6]): 0.37
k a, wt ([7]; Table 5 summary, WT mice, oral administration): 5.80
(F a F g) wt ([7]; as fraction, WT mice, oral administration): 0.64
clearance ([7]; male, FVB (wild-type), mouse, plasma (systemic, abdominal vein), wild‐type mice, iv 1 mg/kg, read-out: CL tot (converted)): 38 mL/min/kg
Vd ([7]; male, FVB (wild-type), mouse, plasma (systemic, abdominal vein), wild‐type mice, iv 1 mg/kg, read-out: Vdss): 1.94 L/kg
half-life ([7]; male, FVB (wild-type), mouse, plasma, iv, 1 mg/kg, wild‐type mice, iv 1 mg/kg): 172 min
AUC(0-inf) ([7]; male, FVB (wild-type), mouse, plasma, iv, 1 mg/kg, wild‐type mice, iv 1 mg/kg, read-out: AUC 0→∞): 1.84 µM·h
Tmax ([7]; male, FVB (wild-type), mouse, portal vein plasma, po): 10.2 min
AUC(0-inf) ([7]; male, FVB (wild-type), mouse, portal vein plasma, po, wild‐type mice, p.o. (ciprofloxacin 1, nitrofurantoin 2, topotecan 1, sulfasalazine 5 mg/kg), portal vein (pv) plasma, read-out: AUC 0→∞ (AUCpv)): 2.54 µM·h
Tmax ([7]; male, FVB (wild-type), mouse, systemic plasma (abdominal vein), po): 10.2 min
half-life ([7]; male, FVB (wild-type), mouse, systemic plasma (abdominal vein), po, wild‐type mice, p.o. (ciprofloxacin 1, nitrofurantoin 2, topotecan 1, sulfasalazine 5 mg/kg), systemic (sys) plasma): 55.8 min
AUC(0-inf) ([7]; male, FVB (wild-type), mouse, systemic plasma (abdominal vein), po, wild‐type mice, p.o. (ciprofloxacin 1, nitrofurantoin 2, topotecan 1, sulfasalazine 5 mg/kg), systemic (sys) plasma, read-out: AUC 0→∞ (AUCsys)): 1.83 µM·h
F h [7, 11]: 78.3%
k a [7, 11]: 5.8 h⁻¹ and 5.80 h⁻¹
BA ([7]; wild‐type mice, p.o. (ciprofloxacin 1, nitrofurantoin 2, topotecan 1, sulfasalazine 5 mg/kg) vs iv 1 mg/kg): 49.9%
F a F g ([7]; wild‐type mice, p.o. (ciprofloxacin 1, nitrofurantoin 2, topotecan 1, sulfasalazine 5 mg/kg), P‐S difference method): 63.7%
AUC 0→∞ (AUCpv) ([7]; wild‐type mice, p.o. (ciprofloxacin 1, nitrofurantoin 2, topotecan 1, sulfasalazine 5 mg/kg), portal vein (pv) plasma): 2.55 µM·h
AUC 0→∞ (AUCsys) ([7]; wild‐type mice, p.o. (ciprofloxacin 1, nitrofurantoin 2, topotecan 1, sulfasalazine 5 mg/kg), systemic (sys) plasma): 1.84 µM·h
F h [8, 12]: 90.0%
k a [8, 12]: 6.9 h⁻¹ and 6.89 h⁻¹
BA ([8]; Bcrp(−/−) mice, p.o. (ciprofloxacin 1, nitrofurantoin 2, topotecan 1, sulfasalazine 5 mg/kg) vs iv 1 mg/kg): 69.4%
F a F g ([8]; Bcrp(−/−) mice, p.o. (ciprofloxacin 1, nitrofurantoin 2, topotecan 1, sulfasalazine 5 mg/kg), P‐S difference method): 77.1%
AUC 0→∞ (AUCpv) ([8]; Bcrp(−/−) mice, p.o. (ciprofloxacin 1, nitrofurantoin 2, topotecan 1, sulfasalazine 5 mg/kg), portal vein (pv) plasma): 3.41 µM·h
AUC 0→∞ (AUCsys) ([8]; Bcrp(−/−) mice, p.o. (ciprofloxacin 1, nitrofurantoin 2, topotecan 1, sulfasalazine 5 mg/kg), systemic (sys) plasma): 2.56 µM·h
k a, bcrp ([8]; Table 5 summary, Bcrp(−/−) mice, oral administration): 6.89
(F a F g)bcrp ([8]; as fraction, Bcrp(−/−) mice, oral administration): 0.77
half-life ([8]; male, Bcrp(−/−) (FVB background), mouse, plasma, iv, 1 mg/kg, Bcrp(−/−) mice, iv 1 mg/kg): 84.6 min
Tmax ([8]; male, Bcrp(−/−) (FVB background), mouse, portal vein plasma, po): 10.2 min
Tmax ([8]; male, Bcrp(−/−) (FVB background), mouse, systemic plasma (abdominal vein), po): 10.2 min
AUC(0-inf) ([8]; male, FVB Bcrp(−/−), mouse, plasma (systemic, abdominal vein), iv, 1 mg/kg, Bcrp(−/−) mice, iv 1 mg/kg, read-out: AUC 0→∞): 1.84 µM·h
clearance ([8]; male, FVB Bcrp(−/−), mouse, plasma (systemic, abdominal vein), Bcrp(−/−) mice, iv 1 mg/kg, read-out: CL tot (converted)): 38 mL/min/kg
Vd ([8]; male, FVB Bcrp(−/−), mouse, plasma (systemic, abdominal vein), Bcrp(−/−) mice, iv 1 mg/kg, read-out: Vdss): 1.45 L/kg
AUC(0-inf) ([8]; male, FVB Bcrp(−/−), mouse, portal vein plasma, po, Bcrp(−/−) mice, p.o. (ciprofloxacin 1, nitrofurantoin 2, topotecan 1, sulfasalazine 5 mg/kg), portal vein (pv) plasma, read-out: AUC 0→∞ (AUCpv)): 3.41 µM·h
half-life ([8]; male, FVB Bcrp(−/−), mouse, systemic plasma (abdominal vein), po, Bcrp(−/−) mice, p.o. (ciprofloxacin 1, nitrofurantoin 2, topotecan 1, sulfasalazine 5 mg/kg), systemic (sys) plasma): 75 min
AUC(0-inf) ([8]; male, FVB Bcrp(−/−), mouse, systemic plasma (abdominal vein), po, Bcrp(−/−) mice, p.o. (ciprofloxacin 1, nitrofurantoin 2, topotecan 1, sulfasalazine 5 mg/kg), systemic (sys) plasma, read-out: AUC 0→∞ (AUCsys)): 2.56 µM·h
AUC pv and AUC sys after oral administration, Bcrp(−/−) mice vs WT mice ([8]; oral administration): approximately 1.5 fold
